The results in this text go back to patent US6717008B2, “Derivatives of C2-substituted indan-1-ol compounds, methods for their preparation and use” (Aventis Pharma Deutschland GmbH, priority 2001, dated 2004).

For one data set, the system named is female NMRI mice. Nature of the data set: Anorectic action: cumulative evaporated milk consumption after 24 h feed removal. Format: in vivo. The note with it: dose 10 mg/kg, i.p. or po (route not specified), compared with control animals. On the procedure:
The anorectic action was tested on female NMRI mice. After removal of feed for 24 hours, the preparation to be tested was administered intraperitoneally (i.p.) or by gavage (po). The animals were housed singly and, with free access to drinking water, they were offered evaporated milk 30 minutes after administration of the preparation. The consumption of evaporated milk was determined and the general behavior of the animals was monitored every half an hour for 7 hours. The measured milk consumption was compared to that of vehicle-treated control animals.

For orientation: melting point means the temperature of the solid-liquid transition.

As for `CC(=O)OC1c2ccc(Cl)cc2CC1S(C)(=O)=O` (centres unmarked) [Example 1, 1-Acetoxy-5-chloro-2-methylsulfonylindane], the melting point stood at 136 °C. For the same molecule, in the data set on female NMRI mice, the “Reduction in cumulative milk consumption as % of the control” value is listed as 81 % of the control.
